Patent publication US8367051B2, “Preparation of functional gel particles with a dual crosslink network” (Carnegie Mellon University, priority 2006, dated 2013)

Tested on: HeLa cells
Test: Doxorubicin release from nanogels in cell media, live/dead cell assay
Type: cell-based
Conditions: after addition of glutathione (nanogels) or free Dox (control wells); control 93%; free Dox amount 6-7 times larger
Experimental: Doxorubicin release from nanogels in cell media. Using standard cell culture techniques, 5×10^4 HeLa cells were added to each well of a 24-well plate and cultured in complete DMEM for 24 h to permit cell attachment to the surface. After this time period, Dox-loaded nanogel (16%, 1.5 mg) was added to four wells (for each nanogel sample), leaving 12 wells with no gel to serve at control. After another 24 hours (48 hours total), the media was removed from 10 of the wells (6 samples, 4 controls) and a live/dead cell assay was performed to measure the toxicity of the gel before addition of the reducing agent. After performing this analysis, glutathione (0.2 mg) dissolved in sterile PBS, was added to each well containing the nanogels and 6 of the control wells. Additionally, free Dox (1 mg) was added to 3 of the control wells. […]
To confirm the non-limiting exemplary concept that Dox-loaded nanogels will be degraded upon the addition of glutathione in cellular media and in turn, the released Dox molecules will kill cancer cells, HeLa cancer cells were incubated with and without 16.4% Dox-loaded nanogels. The cell viability was measured at the 48-hour time point using live/dead staining to estimate the cytotoxicity of the Dox-loaded nanogel before addition of the reducing agent. […]

SMILES: COc1cccc2c1C(=O)c1c(O)c3c(c(O)c1C2=O)C[C@@](O)(C(=O)CO)C[C@@H]3O[C@H]1C[C@H](N)[C@H](O)[C@H](C)O1.Cl [free Dox, doxorubicin hydrochloride]
- cell viability of HeLa cells after Dox release: 7%
